From ChEMBL document CHEMBL5236590, “Discovery of Novel N-(5-(Pyridin-3-yl)-1H-indazol-3-yl)benzamide Derivatives as Potent Cyclin-Dependent Kinase 7 Inhibitors for the Treatment of Autosomal Dominant Polycystic Kidney Disease” (J Med Chem, 2022)
pIC50: −log10 of the molar value. Calls of active or inactive are those of the source. The rule behind the calls is not given here.

Experiments:
[1] = molecular target: cAMP-dependent protein kinase catalytic subunit alpha (Homo sapiens) (UniProt P17612); test: Inhibition of human recombinant PKA expressed in Escherichia coli at 1 uM by KINOMEscan analysis relative to control
[2] = molecular target: Serine/threonine-protein kinase PAK 2 (Homo sapiens) (UniProt Q13177); test: Inhibition of human partial length wild type PAK2 (P151/R525) expressed in bacterial system at 1 uM by KINOMEscan analysis relative to control
Chain of Serine/threonine-protein kinase PAK 2 (Homo sapiens) (Q13177 whole entry): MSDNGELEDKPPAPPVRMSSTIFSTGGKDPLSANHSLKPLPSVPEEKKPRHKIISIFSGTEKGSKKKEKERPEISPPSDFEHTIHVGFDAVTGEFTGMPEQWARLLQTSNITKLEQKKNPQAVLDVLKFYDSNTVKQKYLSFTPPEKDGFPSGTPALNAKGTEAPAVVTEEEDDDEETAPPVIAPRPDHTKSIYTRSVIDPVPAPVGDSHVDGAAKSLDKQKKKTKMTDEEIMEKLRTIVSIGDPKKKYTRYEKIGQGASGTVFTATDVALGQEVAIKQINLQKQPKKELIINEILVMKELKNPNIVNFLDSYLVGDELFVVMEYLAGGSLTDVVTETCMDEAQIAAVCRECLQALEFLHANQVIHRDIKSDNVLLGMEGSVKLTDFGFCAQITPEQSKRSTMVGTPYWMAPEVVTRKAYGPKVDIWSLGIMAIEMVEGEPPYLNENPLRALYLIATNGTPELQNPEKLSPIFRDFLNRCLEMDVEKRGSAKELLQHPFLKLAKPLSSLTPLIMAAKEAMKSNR

[3] = molecular target: MAP kinase-activated protein kinase 5 (Homo sapiens) (UniProt Q8IW41); test: Inhibition of human partial length wild type PRAK (M1/D322) expressed in mammalian system at 1 uM by KINOMEscan analysis relative to control
Chain of MAP kinase-activated protein kinase 5 (Homo sapiens) (Q8IW41 whole entry): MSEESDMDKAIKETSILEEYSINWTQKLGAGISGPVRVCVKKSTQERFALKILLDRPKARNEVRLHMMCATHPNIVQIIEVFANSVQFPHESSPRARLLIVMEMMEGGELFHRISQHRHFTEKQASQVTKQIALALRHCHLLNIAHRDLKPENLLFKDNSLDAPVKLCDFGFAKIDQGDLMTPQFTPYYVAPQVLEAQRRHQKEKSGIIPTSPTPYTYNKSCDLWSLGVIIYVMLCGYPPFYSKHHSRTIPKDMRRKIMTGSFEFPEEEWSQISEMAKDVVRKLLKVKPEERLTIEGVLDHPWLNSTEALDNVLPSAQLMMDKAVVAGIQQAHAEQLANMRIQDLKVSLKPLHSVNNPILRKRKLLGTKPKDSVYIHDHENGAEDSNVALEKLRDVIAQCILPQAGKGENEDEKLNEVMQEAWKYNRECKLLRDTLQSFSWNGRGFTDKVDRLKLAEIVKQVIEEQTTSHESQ

[4] = molecular target: Platelet-derived growth factor receptor beta (Homo sapiens) (UniProt P09619); test: Inhibition of human partial length wild type PDGFRbeta V582/Y1009 expressed in bacterial system at 1 uM by KINOMEscan analysis relative to control
[5] = molecular target: Mitogen-activated protein kinase kinase kinase 7 (Homo sapiens) (UniProt O43318); test: Inhibition of human partial length TAK1 (M1/Q303) expressed in mammalian system at 1 uM by KINOMEscan analysis relative to control
[6] = molecular target: Tyrosine-protein kinase JAK2 (Homo sapiens) (UniProt O60674); test: Inhibition of human partial length wild type JAK2 (A829/G1132) expressed in mammalian system at 1 uM by KINOMEscan analysis relative to control
Chain of Tyrosine-protein kinase JAK2 (Homo sapiens) (O60674 whole entry): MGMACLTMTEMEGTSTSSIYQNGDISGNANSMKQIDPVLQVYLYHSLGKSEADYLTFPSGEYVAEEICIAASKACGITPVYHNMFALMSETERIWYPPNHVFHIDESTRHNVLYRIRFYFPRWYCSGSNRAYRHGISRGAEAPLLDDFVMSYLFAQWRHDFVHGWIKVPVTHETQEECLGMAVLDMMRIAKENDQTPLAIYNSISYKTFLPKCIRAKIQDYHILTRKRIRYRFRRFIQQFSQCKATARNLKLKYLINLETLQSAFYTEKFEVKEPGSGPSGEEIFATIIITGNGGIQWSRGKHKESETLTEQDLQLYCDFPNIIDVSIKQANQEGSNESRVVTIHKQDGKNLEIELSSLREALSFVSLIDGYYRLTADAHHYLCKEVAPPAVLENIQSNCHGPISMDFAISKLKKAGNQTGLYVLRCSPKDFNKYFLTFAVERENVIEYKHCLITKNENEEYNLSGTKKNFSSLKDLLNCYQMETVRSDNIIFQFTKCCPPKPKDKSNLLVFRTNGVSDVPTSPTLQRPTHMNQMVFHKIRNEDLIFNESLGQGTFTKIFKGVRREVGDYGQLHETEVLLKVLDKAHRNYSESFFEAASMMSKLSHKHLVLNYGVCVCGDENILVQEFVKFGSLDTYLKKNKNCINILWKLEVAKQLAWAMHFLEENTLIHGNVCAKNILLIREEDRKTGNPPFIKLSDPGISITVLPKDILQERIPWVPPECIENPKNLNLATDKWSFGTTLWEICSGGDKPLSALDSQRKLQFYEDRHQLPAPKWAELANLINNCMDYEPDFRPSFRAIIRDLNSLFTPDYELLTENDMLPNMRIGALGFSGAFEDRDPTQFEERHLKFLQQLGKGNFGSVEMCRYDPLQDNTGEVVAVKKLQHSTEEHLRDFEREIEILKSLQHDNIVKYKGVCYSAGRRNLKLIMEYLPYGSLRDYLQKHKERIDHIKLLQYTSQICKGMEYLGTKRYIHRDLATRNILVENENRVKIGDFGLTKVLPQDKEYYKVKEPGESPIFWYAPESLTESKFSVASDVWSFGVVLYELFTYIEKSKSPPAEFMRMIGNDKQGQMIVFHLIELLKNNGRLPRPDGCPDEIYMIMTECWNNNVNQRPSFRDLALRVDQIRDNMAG

[7] = tested on: Epidermal growth factor receptor (Homo sapiens), P00533 [UNDEFINED MUTATION]; test: Inhibition of human partial length EGFR (R669/V1011) G719C mutant expressed in bacterial system at 1 uM by KINOMEscan analysis relative to control
[8] = molecular target: Cyclin-dependent kinase 3 (Homo sapiens, UniProt Q00526); test: Inhibition of CDK3 (unknown origin)
Chain of Cyclin-dependent kinase 3 (Q00526 whole entry): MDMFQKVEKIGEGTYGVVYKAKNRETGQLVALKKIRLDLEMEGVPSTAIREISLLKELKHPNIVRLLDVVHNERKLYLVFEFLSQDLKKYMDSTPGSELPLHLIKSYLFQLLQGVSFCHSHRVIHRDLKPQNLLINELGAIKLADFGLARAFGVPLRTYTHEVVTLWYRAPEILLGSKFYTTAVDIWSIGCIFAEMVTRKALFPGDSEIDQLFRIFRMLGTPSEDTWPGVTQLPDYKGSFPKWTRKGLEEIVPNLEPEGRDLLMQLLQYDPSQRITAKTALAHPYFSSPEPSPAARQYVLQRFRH

[9] = Efflux ratio of apparent permeability in human Caco-2 cells after 120 mins by LC-MS/MS analysis; format: ADME, cell-based
Mus musculus = test: Reduction in AMPD3 protein expression in kidney-specific Pkd1 knockout ADPKD mouse model assessed as protein expression in kidney at 5 mg/kg by Western blot analysis; format: functional, organism-based
MDCK = test: Inhibition of cyst formation in in-vitro MDCK cyst model assessed as decrease in cyst diameter at 1 to 3 uM measured for 4 to […]; format: functional, cell-based; details: Canis lupus familiaris, dose 1-3 µM, time lower 4.0 hrs
[10] = molecular target: Tyrosine-protein kinase Fyn (Homo sapiens) (UniProt P06241); test: Inhibition of human partial length wild type Fyn (T243/L534) expressed in bacterial system at 1 uM by KINOMEscan analysis relative to control
[11] = AUClast in ICR mouse at 5 mg/kg, iv single dose measured upto 24 hrs; format: ADME, organism-based; parameters: dose 5 mg/kg, time < 24 hrs, route iv; details: in vivo
Homo sapiens = species: Homo sapiens; test: Inhibition of P13 Kinase p120gamma (unknown origin) at 1 uM relative to control
[12] = molecular target: Eukaryotic elongation factor 2 kinase (Homo sapiens) (UniProt O00418); test: Inhibition of human recombinant eEF-2K at 1 uM by radiometric assay relative to control
Chain of Eukaryotic elongation factor 2 kinase (Homo sapiens) (O00418 whole entry): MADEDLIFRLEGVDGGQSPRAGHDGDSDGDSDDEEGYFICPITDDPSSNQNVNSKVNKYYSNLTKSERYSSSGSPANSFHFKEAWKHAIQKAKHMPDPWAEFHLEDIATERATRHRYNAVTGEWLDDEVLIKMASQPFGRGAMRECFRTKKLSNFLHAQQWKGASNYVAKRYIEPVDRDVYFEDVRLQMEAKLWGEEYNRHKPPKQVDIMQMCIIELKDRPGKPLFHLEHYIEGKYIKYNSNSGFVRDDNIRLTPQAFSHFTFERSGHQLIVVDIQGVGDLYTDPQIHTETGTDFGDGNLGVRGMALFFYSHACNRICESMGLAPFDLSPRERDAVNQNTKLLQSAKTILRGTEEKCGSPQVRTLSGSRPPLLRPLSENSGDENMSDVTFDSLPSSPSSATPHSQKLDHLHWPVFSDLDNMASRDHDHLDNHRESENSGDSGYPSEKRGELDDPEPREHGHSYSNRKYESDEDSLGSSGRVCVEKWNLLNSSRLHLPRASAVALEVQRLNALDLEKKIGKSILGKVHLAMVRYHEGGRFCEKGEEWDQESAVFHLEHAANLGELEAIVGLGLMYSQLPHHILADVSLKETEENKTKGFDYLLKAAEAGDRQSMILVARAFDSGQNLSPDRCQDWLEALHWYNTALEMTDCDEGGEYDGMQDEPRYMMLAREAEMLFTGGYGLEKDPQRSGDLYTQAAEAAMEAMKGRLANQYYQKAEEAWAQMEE

[13] = molecular target: Serine/threonine-protein kinase Chk1 (Homo sapiens) (UniProt O14757); test: Inhibition of human partial length wild type CHK1 expressed in bacterial system at 1 uM by KINOMEscan analysis relative to control
[14] = molecular target: Inhibitor of nuclear factor kappa-B kinase subunit alpha (Homo sapiens) (UniProt O15111); test: Inhibition of human full length wild type IKKalpha expressed in mammalian system at 1 uM by KINOMEscan analysis relative to control
[15] = molecular target: Serine/threonine-protein kinase 4 (Homo sapiens) (UniProt Q13043); test: Inhibition of human full length wild type MST1 expressed in mammalian system at 1 uM by KINOMEscan analysis relative to control
Chain of Serine/threonine-protein kinase 4 (Homo sapiens) (Q13043 whole entry): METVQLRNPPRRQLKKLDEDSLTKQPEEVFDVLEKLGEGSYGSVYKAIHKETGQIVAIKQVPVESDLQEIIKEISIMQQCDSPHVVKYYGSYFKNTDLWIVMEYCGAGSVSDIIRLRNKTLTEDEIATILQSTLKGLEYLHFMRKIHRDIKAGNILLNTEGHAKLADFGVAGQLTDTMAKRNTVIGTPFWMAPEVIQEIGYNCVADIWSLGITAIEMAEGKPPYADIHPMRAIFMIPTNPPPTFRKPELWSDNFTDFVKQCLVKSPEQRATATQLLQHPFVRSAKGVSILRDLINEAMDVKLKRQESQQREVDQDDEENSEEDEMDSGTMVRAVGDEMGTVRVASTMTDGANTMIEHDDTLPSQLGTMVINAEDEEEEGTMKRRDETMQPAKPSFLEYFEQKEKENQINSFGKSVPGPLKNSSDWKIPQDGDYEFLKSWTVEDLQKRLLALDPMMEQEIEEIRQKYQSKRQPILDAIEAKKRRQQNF

[16] = Toxicity in wild type mouse assessed as kidney size at 5 mg/kg; format: organism-based; details: in vivo
[17] = Cmax in ICR mouse at 5 mg/kg, sc single dose measured upto 24 hrs; format: ADME, organism-based; parameters: time < 24 hrs, dose 5 mg/kg, route sc; details: in vivo
[18] = molecular target: Tyrosine-protein kinase receptor TYRO3 (Homo sapiens) (UniProt Q06418); test: Inhibition of RSE (unknown origin) at 1 uM relative to control
[19] = Observed clearance in ICR mouse at 5 mg/kg, iv single dose measured upto 24 hrs; format: ADME, organism-based; details: in vivo
[20] = molecular target: Serine/threonine-protein kinase 17A (Homo sapiens) (UniProt Q9UEE5); test: Inhibition of human partial length wild type DRAK1 expressed in bacterial system at 1 uM by KINOMEscan analysis relative to control
[21] = molecular target: Cyclin-dependent kinase 1 (Homo sapiens, UniProt P06493); test: Inhibition of CDK1 (unknown origin)
Chain of Cyclin-dependent kinase 1 (P06493 whole entry): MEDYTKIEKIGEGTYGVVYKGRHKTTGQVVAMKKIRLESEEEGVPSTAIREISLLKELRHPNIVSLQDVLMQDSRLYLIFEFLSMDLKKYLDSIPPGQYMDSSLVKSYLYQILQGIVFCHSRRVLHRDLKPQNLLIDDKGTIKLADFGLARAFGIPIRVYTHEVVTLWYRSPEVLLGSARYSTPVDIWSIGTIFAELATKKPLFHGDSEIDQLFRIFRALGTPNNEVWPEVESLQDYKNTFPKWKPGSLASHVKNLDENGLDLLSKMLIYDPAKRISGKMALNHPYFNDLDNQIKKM

[22] = AUClast in ICR mouse at 5 mg/kg, sc single dose measured upto 24 hrs; format: ADME, organism-based; parameters: time < 24 hrs, dose 5 mg/kg, route sc; details: in vivo
[23] = molecular target: Ephrin type-B receptor 4 (Homo sapiens) (UniProt P54760); test: Inhibition of human partial length wild type EphB4 (H585/G892) expressed in bacterial system at 1 uM by KINOMEscan analysis relative to control
THP-1 = test: Cytotoxicity against human THP-1 cells assessed as cell viability measured after 24 hrs by CCK-8 assay; format: functional, cell-based; details: THP-1, 24 h
[24] = molecular target: Serine/threonine-protein kinase mTOR (Homo sapiens) (UniProt P42345); test: Inhibition of human partial length wild type mTOR (L1382/W2549) expressed in mammalian system at 1 uM by KINOMEscan analysis relative to control
[25] = Bioavailability in ICR mouse at 5 mg/kg, sc single dose measured upto 24 hrs; format: ADME, organism-based; details: in vivo
[26] = Observed AUC (infinitive) in ICR mouse at 5 mg/kg, iv single dose measured upto 24 hrs; format: ADME, organism-based; parameters: dose 5 mg/kg, time < 24 hrs, route iv; details: in vivo
[27] = molecular target: PI3-kinase p110-delta/p85-alpha (Homo sapiens) (UniProt P27986+O00329); test: Inhibition of PI3 Kinase p110delta/p85alpha (unknown origin) at 1 uM relative to control; format: protein-complex assay
[28] = molecular target: 5'-AMP-activated protein kinase catalytic subunit alpha-1 (Homo sapiens) (UniProt Q13131); test: Inhibition of human partial length AMPKalphal (M1/E306) expressed in bacterial system at 1 uM by KINOMEscan analysis relative to control
[29] = Half life in ICR mouse at 5 mg/kg, sc single dose measured upto 24 hrs; format: ADME, organism-based; details: in vivo
[30] = molecular target: Ribosomal protein S6 kinase beta-1 (Homo sapiens) (UniProt P23443); test: Inhibition of human partial length wild type p70S6K (M1/S421) expressed in mammalian system at 1 uM by KINOMEscan analysis relative to control
Chain of Ribosomal protein S6 kinase beta-1 (Homo sapiens) (P23443 whole entry, looked up): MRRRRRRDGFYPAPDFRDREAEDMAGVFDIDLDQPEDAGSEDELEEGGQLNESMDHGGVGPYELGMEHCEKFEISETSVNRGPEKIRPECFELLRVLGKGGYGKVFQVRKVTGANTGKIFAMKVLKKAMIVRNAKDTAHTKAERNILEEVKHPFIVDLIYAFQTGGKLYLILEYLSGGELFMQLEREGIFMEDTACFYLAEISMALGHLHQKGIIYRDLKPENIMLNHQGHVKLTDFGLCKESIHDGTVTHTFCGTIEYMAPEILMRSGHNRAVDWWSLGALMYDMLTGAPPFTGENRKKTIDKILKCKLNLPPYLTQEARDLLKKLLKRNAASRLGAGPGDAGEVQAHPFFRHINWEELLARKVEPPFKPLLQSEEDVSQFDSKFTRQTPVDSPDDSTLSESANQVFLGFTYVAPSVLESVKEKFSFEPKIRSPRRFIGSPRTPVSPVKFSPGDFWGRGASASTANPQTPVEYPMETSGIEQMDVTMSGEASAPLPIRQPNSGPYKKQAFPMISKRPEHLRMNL

[31] = Observed volume of distribution at steady state in ICR mouse at 5 mg/kg, iv single dose measured upto 24 hrs; format: ADME, organism-based; details: in vivo, read-out: Vdss
[32] = molecular target: MAP kinase-interacting serine/threonine-protein kinase 2 (Homo sapiens) (UniProt Q9HBH9); test: Inhibition of human partial length wild type Mnk2 (G63/S388) expressed in mammalian system at 1 uM by KINOMEscan analysis relative to control
Chain of MAP kinase-interacting serine/threonine-protein kinase 2 (Homo sapiens) (Q9HBH9 whole entry, looked up): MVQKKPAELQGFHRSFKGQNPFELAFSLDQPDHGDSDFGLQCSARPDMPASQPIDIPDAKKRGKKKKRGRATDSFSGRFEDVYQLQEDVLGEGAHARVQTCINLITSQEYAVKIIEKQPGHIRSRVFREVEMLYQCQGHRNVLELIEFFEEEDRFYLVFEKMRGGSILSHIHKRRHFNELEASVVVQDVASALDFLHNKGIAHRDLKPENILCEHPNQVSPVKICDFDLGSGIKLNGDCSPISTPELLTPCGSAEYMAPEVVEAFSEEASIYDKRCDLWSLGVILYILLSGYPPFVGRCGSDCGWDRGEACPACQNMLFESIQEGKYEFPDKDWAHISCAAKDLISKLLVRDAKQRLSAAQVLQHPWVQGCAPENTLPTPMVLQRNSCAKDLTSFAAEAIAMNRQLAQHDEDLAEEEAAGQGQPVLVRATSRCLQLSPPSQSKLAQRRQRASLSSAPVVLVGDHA

[33] = Observed AUC (infinitive) in ICR mouse at 5 mg/kg, sc single dose measured upto 24 hrs; format: ADME, organism-based; parameters: time < 24 hrs, dose 5 mg/kg, route sc; details: in vivo

## C=CC(=O)Nc1ccc(C(=O)Nc2n[nH]c3ccc(-c4cncc(NC[C@@H](O)c5ccccc5)c4)cc23)cc1
[1]
  inhibition: < 50%
[2]
  inhibition: < 50%
[3]
  inhibition: < 50%
[4]
  inhibition: < 50%
[5]
  inhibition: 76%
[6]
  inhibition: 62%
[7]
  inhibition: < 50%
[8]
  pIC50: 5.74
[9]
  efflux ratio at 2 h: > 48
Mus musculus
  inhibition: Active
MDCK
  inhibition: Dose-Dependent Effect
[10]
  inhibition: < 50%
[11]
  AUC(0-t) at 24 h: 26900 ng·h/mL
Homo sapiens
  inhibition: < 50%
[12]
  inhibition: < 50%
[13]
  inhibition: < 50%
[14]
  inhibition: < 50%
[15]
  inhibition: < 50%
[16]
  Activity: Non-Toxic
[17]
  Cmax: 3810 ng/mL
[18]
  inhibition: < 50%
[19]
  clearance: 3 mL/min/kg
[20]
  inhibition: 66%
[21]
  pIC50: 5.47
[22]
  AUC(0-t) at 24 h: 17300 ng·h/mL
[23]
  inhibition: < 50%
THP-1
  pIC50: 4.89
[24]
  inhibition: < 50%
[25]
  bioavailability: 64.2%
[26]
  AUC(0-inf): 31700 ng·h/mL
[27]
  inhibition: < 50%
[28]
  inhibition: 79%
[29]
  half-life: 3 h
[30]
  inhibition: < 50%
[31]
  Vd: 1.28 L/kg
[32]
  inhibition: < 50%
[33]
  AUC(0-inf): 17400 ng·h/mL
